Test results published in patent US8785457B2 (Cellzome Limited, priority 2009, dated 2014).
Read-outs that look alike come from different tables or passages of the source.

Assays:
PI3K delta (PI3 Kd) = target: T1, PI3K delta (PI3 Kd) (Homo sapiens, UniProt O00329); assay: kinobeads assay, PI3K delta; format: binding
T1 construct: endogenous in cells; host or cells: Jurkat, clone E6-1 (ATCC TIB-152) cell lysate
Summary of the method: (§1)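 Competitive binding in Jurkat cell lysate (5 mg/ml total protein): test compounds at various concentrations competed with beads bearing immobilized phenylmorpholin-chromen ligand. Bead-bound kinases were eluted and quantified by antibody dot blot with infrared detection; IC50 values came from dose-response curves.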

[1] = target: T2, DNA-dependent protein kinase (DNA-PK) (Homo sapiens, UniProt P78527); assay: kinobeads assay, DNA-PK; format: binding
T2 construct: endogenous in cells; host or cells: Jurkat, clone E6-1 (ATCC TIB-152) cell lysate
Summary of the method: as §1

PI3Kalpha (PI3Ka) = target: T3, PI3Kalpha (PI3Ka) (Homo sapiens, UniProt P42336); assay: kinobeads assay, PI3Kalpha; format: binding; settings: for Inhibition values (IC50) PI3Ka: kinobeads assay, Table 6
T3 construct: endogenous in cells; host or cells: cell lysate
Summary of the method: (§2)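 IC50s are fitted to per-kinase dose-response curves. Kinases retained on phenylmorpholin-chromen affinity beads are read by multiplexed immunodetection after elution. Compound, added at a range of concentrations straight into cell lysate, competes for this bead capture.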

PI3 Kbeta (PI3 Kb) = target: T4, PI3 Kbeta (PI3 Kb) (Homo sapiens, UniProt P42338); assay: kinobeads assay, PI3Kbeta; format: binding
T4 construct: endogenous in cells; host or cells: cell lysate
Summary of the method: as §2

PI3 Kgamma (PI3 Kg) = target: T5, PI3 Kgamma (PI3 Kg) (Homo sapiens, UniProt P48736); assay: kinobeads assay, PI3Kgamma; format: binding
T5 construct: endogenous in cells; host or cells: cell lysate
Summary of the method: as §2

[2] = tested on: S6RP serine-240/244 phosphorylation; assay: In vitro Phospho-S6 cellular assay (pS6RP S240/244) in HEK293T/17 cells; format: cell-based; settings: Homo sapiens, 2 hours, read-out: pS6 IC50
Description: Activation of mTOR signaling results in phosphorylation of several downstream targets. In cells, mTOR exists in two different protein complexes. The mTOR Complex-1 (mTORC1) phosphorylates and activates S6 Kinase 1 (S6K1) and S6 Kinase 2 (S6K2) (also known as p70S6K) which then phosphorylate S6 Ribosomal Protein (S6RP) (also known as RPS6)3. S6RP is phosphorylated on serine 235, serine 236, serine 240 and serine 244 by both pS6K1 and pS6K2. The mTOR Complex-2 (mTORC2) phosphorylates AKT on serine 473 which activates the AKT signaling pathway.
The assay measures a test compound's inhibition of S6RP serine-240/244 phosphorylation and inhibition of Akt serine-473 phosphorylation in human embryonic kidney derived HEK293T/17 cells (ATCC CRL-11268).
The HEK293T/17 cell line is maintained in DMEM media (Invitrogen catalogue number 41965-039) supplemented with 10% FCS at 37° C. in a 5% CO2 humidified incubator.
Cells are seeded in 96-well plates at 40,000 cells/well (pS6RP S240/244 assay) or 80,000 cells/well (pAkt S473 assay) in 90 μl growth media (DMEM, 2% FCS). Plates are incubated for 1 hour in a humidified incubator to allow the cells to adhere. Cells are treated with 8 concentrations of test compounds or DMSO alone for controls (final DMSO concentration 0.1%) and incubated at 37° C. for 2 hours. Then 20 μl of 5× concentrated lysis buffer (750 mM NaCl, 100 mM Tris pH7.4, 5 mM ADTA, 5 mM EGTA, 5% Triton X-100) is added, plates are sealed and incubated for 15 minutes at 4° C. with gentle shaking. After cell lysis, 25 μl cell lysate is transferred to a MesoScale plate coated with an antibody to pS6RP Ser240/244 (MesoScale Discovery K150DGD-3) or an antibody to pAkt Ser 473 (MesoScale Discovery K151DGD-3). Plates have been blocked before by incubation with 150 μl MesoScale Discovery Blocking Solution-A for 1 hour at room temperature followed by washing with 150 μl 1× Tris wash buffer per well. After the transfer of the cell lysate to the MSD plate, the pS6RP (or pAkt) protein is captured on the coated antibody by incubation at room temperature for 1 hour with gentle shaking. After the capture step the plate is washed three times with 150 μl of 1× Tris wash buffer per well. Then 25 μl detection antibody conjugated with a Sulfo-Tag is added and incubated for 1 hour at room temperature with gentle shaking. Subsequently the antibody solution is removed and the plate is washed 3 times with 150 μl×Tris wash buffer per well and 150 μl Read buffer is added. The plates are analysed on a MSD 2400 Plate Reader (MesoScale Discovery). Data analysis is performed using nonlinear regression for a sigmoidal dose-response with a variable slope.

[3] = tested on: Salmonella typhimurium strain TA1535; assay: Ames plate assay, TA1535
Experimental: (§3) Certain compounds of the invention were tested for their potential to induce gene mutations in bacterial strains of Salmonella typhimurium (strains TA1535, TA1537, TA98, TA100) and Escherichia coli (strain WP2uvrA(pKM101)) in a bacterial mutation assay in the absence and presence of metabolite activation (rat S9-mix). Compounds are tested at the following dose levels: 50, 150, 500, or 1500 μg/plate.
(§4) Vehicle control treatment is the vehicle used to prepare the test compound formulation diluted to the same extent as the test compound solution. Positive controls using known mutagens are included for each strain with and without rat S9 mix. Four plates are used for the vehicle control and two replicate plates per dose per strain for the treated groups and for each positive control. At the end of incubation the number of revertant colonies per plate are recorded and mean values calculated for each vehicle control, positive control and concentration of test compound used. Results are also expressed as a ratio of the mean values to the mean concurrent vehicle control value (i.e. fold increase).

[4] = tested on: Salmonella typhimurium strain TA1537; assay: Ames plate assay, TA1537
Experimental: as §3, §4

[5] = tested on: Salmonella typhimurium strain TA98; assay: Ames plate assay, TA98
Experimental: as §3, §4

[6] = tested on: Salmonella typhimurium strain TA100; assay: Ames plate assay, TA100
Experimental: as §3, §4

[7] = tested on: Escherichia coli strain WP2uvrA(pKM101); assay: Ames plate assay, WP2uvrA(pKM101)
Experimental: as §3, §4

mTOR = target: T6, mTOR (Homo sapiens, UniProt P42345); assay: mTOR kinobeads assay (competitive binding in Jurkat cell lysate, immunodetection); settings: Further Kinobeads Data; read-out: mTor
T6 construct: endogenous in cells; host or cells: Jurkat, clone E6-1 (ATCC TIB-152) cell lysate
Summary of the method: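 IC50 derived from dose-response curves of mTOR captured on immobilized phenylmorpholin-chromen beads, detected by antibody dot blot with infrared fluorescence.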

[8] = kinobeads assay, Table 6, read-out: Inhibition values (IC50) PI3Kd
[9] = kinobeads assay, Table 6, read-out: Inhibition values (IC50) DNAPK
[10] = kinobeads assay, Table 6, read-out: Inhibition values (IC50) PI3Kb
[11] = kinobeads assay, Table 6, read-out: Inhibition values (IC50) PI3Kg

T3 sequence (P42336 whole entry): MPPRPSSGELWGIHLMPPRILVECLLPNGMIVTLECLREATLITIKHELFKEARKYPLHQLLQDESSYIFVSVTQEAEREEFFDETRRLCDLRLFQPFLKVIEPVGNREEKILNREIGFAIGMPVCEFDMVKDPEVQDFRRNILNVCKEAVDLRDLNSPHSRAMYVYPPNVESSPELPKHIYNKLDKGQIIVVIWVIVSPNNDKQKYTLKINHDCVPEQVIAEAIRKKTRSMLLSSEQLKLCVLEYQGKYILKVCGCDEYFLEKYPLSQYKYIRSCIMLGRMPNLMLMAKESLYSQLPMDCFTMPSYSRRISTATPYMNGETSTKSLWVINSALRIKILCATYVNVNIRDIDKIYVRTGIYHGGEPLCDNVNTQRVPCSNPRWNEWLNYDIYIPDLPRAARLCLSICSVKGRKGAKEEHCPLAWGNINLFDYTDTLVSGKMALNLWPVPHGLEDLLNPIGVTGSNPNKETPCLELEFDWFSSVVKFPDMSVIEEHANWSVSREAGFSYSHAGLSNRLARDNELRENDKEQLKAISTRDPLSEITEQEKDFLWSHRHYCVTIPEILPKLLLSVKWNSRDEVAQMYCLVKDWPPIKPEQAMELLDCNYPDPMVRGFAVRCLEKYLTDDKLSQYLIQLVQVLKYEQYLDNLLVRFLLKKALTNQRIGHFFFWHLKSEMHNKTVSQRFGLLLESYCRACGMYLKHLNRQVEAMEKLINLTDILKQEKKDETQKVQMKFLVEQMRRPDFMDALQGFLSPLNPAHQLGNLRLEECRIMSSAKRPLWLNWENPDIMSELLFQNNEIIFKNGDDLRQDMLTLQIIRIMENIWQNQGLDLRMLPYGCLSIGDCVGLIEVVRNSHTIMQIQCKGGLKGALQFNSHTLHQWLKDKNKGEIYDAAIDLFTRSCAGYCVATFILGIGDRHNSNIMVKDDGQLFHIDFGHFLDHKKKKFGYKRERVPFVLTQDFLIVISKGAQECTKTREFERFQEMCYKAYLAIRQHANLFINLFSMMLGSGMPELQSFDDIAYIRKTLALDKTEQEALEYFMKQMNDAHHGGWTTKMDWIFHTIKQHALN
T3 sequence (P27986 whole entry partner): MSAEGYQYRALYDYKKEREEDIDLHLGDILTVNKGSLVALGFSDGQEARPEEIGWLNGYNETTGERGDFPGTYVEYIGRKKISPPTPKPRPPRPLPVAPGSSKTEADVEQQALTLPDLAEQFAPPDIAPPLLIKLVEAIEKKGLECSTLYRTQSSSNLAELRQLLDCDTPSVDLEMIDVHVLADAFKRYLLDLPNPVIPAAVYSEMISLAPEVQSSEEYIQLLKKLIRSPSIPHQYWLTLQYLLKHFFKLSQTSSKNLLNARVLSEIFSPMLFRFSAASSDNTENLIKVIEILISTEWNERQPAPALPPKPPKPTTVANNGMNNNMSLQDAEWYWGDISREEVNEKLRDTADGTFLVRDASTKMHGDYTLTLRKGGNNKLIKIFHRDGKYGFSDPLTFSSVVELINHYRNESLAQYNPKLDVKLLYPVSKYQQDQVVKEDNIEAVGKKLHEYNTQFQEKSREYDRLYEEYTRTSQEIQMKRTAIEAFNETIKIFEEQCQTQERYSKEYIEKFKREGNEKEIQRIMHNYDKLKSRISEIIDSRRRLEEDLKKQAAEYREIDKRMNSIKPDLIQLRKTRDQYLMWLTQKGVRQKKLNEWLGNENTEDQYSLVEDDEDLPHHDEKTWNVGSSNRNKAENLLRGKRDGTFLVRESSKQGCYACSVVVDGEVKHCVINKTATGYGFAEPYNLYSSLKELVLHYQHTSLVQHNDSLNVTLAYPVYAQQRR
T1 sequence (O00329 whole entry): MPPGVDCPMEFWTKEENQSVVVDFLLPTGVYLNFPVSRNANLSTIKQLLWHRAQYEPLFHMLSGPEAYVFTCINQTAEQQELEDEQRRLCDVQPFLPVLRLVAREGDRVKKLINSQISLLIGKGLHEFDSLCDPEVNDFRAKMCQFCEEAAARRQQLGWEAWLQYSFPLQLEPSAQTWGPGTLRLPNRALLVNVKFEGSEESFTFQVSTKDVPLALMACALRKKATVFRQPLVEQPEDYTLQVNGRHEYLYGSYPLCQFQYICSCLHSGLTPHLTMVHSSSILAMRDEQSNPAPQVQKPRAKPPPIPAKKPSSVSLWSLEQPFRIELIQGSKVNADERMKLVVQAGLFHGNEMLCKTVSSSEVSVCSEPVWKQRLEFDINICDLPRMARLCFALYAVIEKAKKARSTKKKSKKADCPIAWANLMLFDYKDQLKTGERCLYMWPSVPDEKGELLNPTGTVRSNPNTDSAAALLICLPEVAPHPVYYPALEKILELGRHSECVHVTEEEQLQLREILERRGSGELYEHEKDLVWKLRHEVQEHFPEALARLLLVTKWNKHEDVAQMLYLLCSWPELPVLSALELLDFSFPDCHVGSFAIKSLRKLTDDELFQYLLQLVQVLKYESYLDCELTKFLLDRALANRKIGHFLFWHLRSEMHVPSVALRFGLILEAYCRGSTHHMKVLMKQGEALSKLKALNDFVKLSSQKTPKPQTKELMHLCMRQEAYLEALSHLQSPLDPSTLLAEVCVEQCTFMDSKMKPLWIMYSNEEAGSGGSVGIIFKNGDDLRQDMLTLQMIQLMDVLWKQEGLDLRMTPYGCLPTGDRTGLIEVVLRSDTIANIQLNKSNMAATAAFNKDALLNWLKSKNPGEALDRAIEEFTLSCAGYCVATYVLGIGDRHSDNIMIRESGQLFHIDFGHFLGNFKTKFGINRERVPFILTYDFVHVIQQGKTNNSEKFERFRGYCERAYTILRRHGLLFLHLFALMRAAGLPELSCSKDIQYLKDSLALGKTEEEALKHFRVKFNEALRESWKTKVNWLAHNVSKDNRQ
T1 sequence (P27986 whole entry partner): as the sequence (P27986 whole entry partner) above
T5 sequence (P48736 whole entry): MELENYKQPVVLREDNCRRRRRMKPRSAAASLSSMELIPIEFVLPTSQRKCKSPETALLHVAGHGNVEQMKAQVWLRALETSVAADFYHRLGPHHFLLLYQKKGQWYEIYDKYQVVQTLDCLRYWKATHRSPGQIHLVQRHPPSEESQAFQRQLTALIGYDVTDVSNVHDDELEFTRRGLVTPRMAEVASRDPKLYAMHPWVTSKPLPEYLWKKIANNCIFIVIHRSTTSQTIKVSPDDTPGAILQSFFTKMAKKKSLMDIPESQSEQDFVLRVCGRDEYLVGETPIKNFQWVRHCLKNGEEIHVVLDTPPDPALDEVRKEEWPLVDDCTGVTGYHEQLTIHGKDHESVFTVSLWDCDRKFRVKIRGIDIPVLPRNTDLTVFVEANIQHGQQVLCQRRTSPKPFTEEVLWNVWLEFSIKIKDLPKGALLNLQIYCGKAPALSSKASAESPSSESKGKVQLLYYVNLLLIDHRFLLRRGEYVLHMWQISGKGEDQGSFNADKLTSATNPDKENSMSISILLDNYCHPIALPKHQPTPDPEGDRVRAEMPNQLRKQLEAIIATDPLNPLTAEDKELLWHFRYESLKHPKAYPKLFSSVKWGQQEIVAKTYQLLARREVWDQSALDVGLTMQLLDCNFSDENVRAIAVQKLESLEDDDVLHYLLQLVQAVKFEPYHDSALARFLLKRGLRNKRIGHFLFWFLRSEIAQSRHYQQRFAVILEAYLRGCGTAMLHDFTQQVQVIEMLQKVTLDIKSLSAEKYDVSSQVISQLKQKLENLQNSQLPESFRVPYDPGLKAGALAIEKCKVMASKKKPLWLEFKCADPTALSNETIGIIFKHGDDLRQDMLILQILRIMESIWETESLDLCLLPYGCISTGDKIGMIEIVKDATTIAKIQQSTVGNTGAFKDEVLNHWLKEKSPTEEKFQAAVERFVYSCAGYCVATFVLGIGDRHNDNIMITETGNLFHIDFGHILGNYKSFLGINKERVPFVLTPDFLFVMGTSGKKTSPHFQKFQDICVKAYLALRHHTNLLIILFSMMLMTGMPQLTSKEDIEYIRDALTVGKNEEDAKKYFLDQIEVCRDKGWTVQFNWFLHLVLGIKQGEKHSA
T4 sequence (P42338 whole entry): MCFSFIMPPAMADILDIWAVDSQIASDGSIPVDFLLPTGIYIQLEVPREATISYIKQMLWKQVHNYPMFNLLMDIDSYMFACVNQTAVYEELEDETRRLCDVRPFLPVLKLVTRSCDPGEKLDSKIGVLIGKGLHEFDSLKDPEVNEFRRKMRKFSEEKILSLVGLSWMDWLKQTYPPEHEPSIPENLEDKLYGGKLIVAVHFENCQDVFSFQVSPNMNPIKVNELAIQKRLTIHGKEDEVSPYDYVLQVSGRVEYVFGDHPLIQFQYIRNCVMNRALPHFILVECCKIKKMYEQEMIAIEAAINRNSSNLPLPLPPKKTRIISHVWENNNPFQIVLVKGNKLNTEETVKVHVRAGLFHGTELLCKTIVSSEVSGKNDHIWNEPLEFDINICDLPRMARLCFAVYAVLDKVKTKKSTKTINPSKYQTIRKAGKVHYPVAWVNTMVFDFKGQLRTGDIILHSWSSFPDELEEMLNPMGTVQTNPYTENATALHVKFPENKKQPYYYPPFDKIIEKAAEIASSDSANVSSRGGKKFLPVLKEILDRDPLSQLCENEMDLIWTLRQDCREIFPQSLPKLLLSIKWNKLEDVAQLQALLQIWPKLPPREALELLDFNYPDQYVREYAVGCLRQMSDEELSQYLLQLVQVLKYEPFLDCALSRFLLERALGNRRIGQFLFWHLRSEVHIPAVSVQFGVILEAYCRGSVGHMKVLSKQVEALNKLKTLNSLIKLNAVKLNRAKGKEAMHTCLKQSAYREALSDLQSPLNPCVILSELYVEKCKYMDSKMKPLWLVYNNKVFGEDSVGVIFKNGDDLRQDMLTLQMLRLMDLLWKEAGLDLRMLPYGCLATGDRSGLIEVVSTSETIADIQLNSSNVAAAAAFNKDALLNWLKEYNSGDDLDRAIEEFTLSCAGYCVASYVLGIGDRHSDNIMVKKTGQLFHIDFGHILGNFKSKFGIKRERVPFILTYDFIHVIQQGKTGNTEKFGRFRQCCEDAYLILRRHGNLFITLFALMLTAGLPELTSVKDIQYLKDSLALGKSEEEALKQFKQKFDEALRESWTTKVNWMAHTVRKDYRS
T4 sequence (P27986 whole entry partner): as the sequence (P27986 whole entry partner) above

Question: With CCNC(=O)Nc1ccc(-c2nc3c(c(N4CCOCC4)n2)CCNC3)cc1 [Example 82, 1-ethyl-3-(4-(4-morpholino-5,6,7,8-tetrahydropyrido[3,4-d]pyrimidin-2-yl)phenyl)urea] as the molecule, how does the IC50 (PI3K delta (PI3 Kd); [8]) read?
Answer: > 10 µM

Question: And the IC50 [1, 9]?
Answer: > 10 µM

Question: What about the “Inhibition values (IC50) PI3Ka” value (PI3Kalpha (PI3Ka)) of the same molecule?
Answer: D (D >10 μM)

Question: And the IC50 (PI3 Kbeta (PI3 Kb); [10])?
Answer: > 10 µM

Question: What about the IC50 (PI3 Kgamma (PI3 Kg); [11]) of the same molecule?
Answer: > 10 µM

Question: What about the IC50 [2] of the same molecule?
Answer: 991 nM

Question: How did the IC50 (PI3K delta (PI3 Kd); [8]) turn out when CCNC(=O)Nc1ccc(-c2nc3c(c(N4CCOCC4)n2)CCN(C(=O)OC)C3)cc1 [Example 95, methyl 2-(4-(3-ethylureido)phenyl)-4-morpholino-5,6-dihydropyrido[3,4-d]pyrimidine-7(8H)-carboxylate] was run?
Answer: > 10 µM

Question: And the IC50 [1, 9]?
Answer: > 10 µM

Question: And the “Inhibition values (IC50) PI3Ka” value (PI3Kalpha (PI3Ka))?
Answer: D (D >10 μM)

Question: What about the IC50 (PI3 Kbeta (PI3 Kb); [10]) of the same molecule?
Answer: > 10 µM

Question: What about the IC50 (PI3 Kgamma (PI3 Kg); [11]) of the same molecule?
Answer: > 10 µM

Question: And the IC50 [2]?
Answer: 218 nM

Question: What does the source list for CCOC(=O)N1Cc2nc(-c3ccc(N)cc3F)nc(N3CCOC[C@@H]3C)c2C1 [Example 138]?
Answer: Ames plate assay TA1535 +S9 ([3]; TA1535, +S9, 50 μg/Plate): −; Ames plate assay TA1535 +S9 ([3]; TA1535, +S9, 150 μg/Plate): −; Ames plate assay TA1535 +S9 ([3]; TA1535, +S9, 500 μg/Plate): −; Ames plate assay TA1535 +S9 ([3]; TA1535, +S9, 1500 μg/Plate): −; Ames plate assay TA1535 −S9 ([3]; TA1535, −S9, 50 μg/Plate): −; Ames plate assay TA1535 −S9 ([3]; TA1535, −S9, 150 μg/Plate): −; Ames plate assay TA1535 −S9 ([3]; TA1535, −S9, 500 μg/Plate): −; Ames plate assay TA1535 −S9 ([3]; TA1535, −S9, 1500 μg/Plate): −; Ames plate assay TA1537 +S9 ([4]; TA1537, +S9, 50 μg/Plate): −; Ames plate assay TA1537 +S9 ([4]; TA1537, +S9, 150 μg/Plate): −; Ames plate assay TA1537 +S9 ([4]; TA1537, +S9, 500 μg/Plate): −; Ames plate assay TA1537 +S9 ([4]; TA1537, +S9, 1500 μg/Plate): −; Ames plate assay TA1537 −S9 ([4]; TA1537, −S9, 50 μg/Plate): −; Ames plate assay TA1537 −S9 ([4]; TA1537, −S9, 150 μg/Plate): −; Ames plate assay TA1537 −S9 ([4]; TA1537, −S9, 500 μg/Plate): −; Ames plate assay TA1537 −S9 ([4]; TA1537, −S9, 1500 μg/Plate): −; Ames plate assay TA98 +S9 ([5]; TA98, +S9, 50 μg/Plate): −; Ames plate assay TA98 +S9 ([5]; TA98, +S9, 150 μg/Plate): −; Ames plate assay TA98 +S9 ([5]; TA98, +S9, 500 μg/Plate): −; Ames plate assay TA98 +S9 ([5]; TA98, +S9, 1500 μg/Plate): −; Ames plate assay TA98 −S9 ([5]; TA98, −S9, 50 μg/Plate): −; Ames plate assay TA98 −S9 ([5]; TA98, −S9, 150 μg/Plate): −; Ames plate assay TA98 −S9 ([5]; TA98, −S9, 500 μg/Plate): −; Ames plate assay TA98 −S9 ([5]; TA98, −S9, 1500 μg/Plate): −; Ames plate assay TA100 +S9 ([6]; TA100, +S9, 50 μg/Plate): −; Ames plate assay TA100 +S9 ([6]; TA100, +S9, 150 μg/Plate): −; Ames plate assay TA100 +S9 ([6]; TA100, +S9, 500 μg/Plate): −; Ames plate assay TA100 +S9 ([6]; TA100, +S9, 1500 μg/Plate): −; Ames plate assay TA100 −S9 ([6]; TA100, −S9, 50 μg/Plate): −; Ames plate assay TA100 −S9 ([6]; TA100, −S9, 150 μg/Plate): −; Ames plate assay TA100 −S9 ([6]; TA100, −S9, 500 μg/Plate): −; Ames plate assay TA100 −S9 ([6]; TA100, −S9, 1500 μg/Plate): −; Ames plate assay WP2uvrA (pKM101) +S9 ([7]; +S9, 50 μg/Plate): −; Ames plate assay WP2uvrA (pKM101) +S9 ([7]; +S9, 150 μg/Plate): −; Ames plate assay WP2uvrA (pKM101) +S9 ([7]; +S9, 500 μg/Plate): −; Ames plate assay WP2uvrA (pKM101) +S9 ([7]; +S9, 1500 μg/Plate): −; Ames plate assay WP2uvrA (pKM101) −S9 ([7]; −S9, 50 μg/Plate): −; Ames plate assay WP2uvrA (pKM101) −S9 ([7]; −S9, 150 μg/Plate): −; Ames plate assay WP2uvrA (pKM101) −S9 ([7]; −S9, 500 μg/Plate): −; Ames plate assay WP2uvrA (pKM101) −S9 ([7]; −S9, 1500 μg/Plate): −

Question: How did the IC50 (mTOR) turn out when CC(C)N1Cc2nc(-c3ccc(NC(=O)NCCO)cc3F)nc(N3CCOCC3)c2C1 [Example 184, 1-(3-fluoro-4-(6-isopropyl-4-morpholino-6,7-dihyro-5H-pyrrolo[3,4-d]pyrimidin-2-yl)phenyl)-3-(2-hydroxyethyl)urea] was run?
Answer: < 100 nM

Question: What about the IC50 (PI3K delta (PI3 Kd); Further Kinobeads Data, read-out: PI3Kd) of the same molecule?
Answer: 1 to 10 µM

Question: And the IC50 ([1]; Further Kinobeads Data, read-out: DNAPK)?
Answer: > 10 µM

Question: And the PI3Ka (PI3Kalpha (PI3Ka); Further Kinobeads Data)?
Answer: D (D >10 μM)

Question: And the IC50 (PI3 Kbeta (PI3 Kb); Further Kinobeads Data, read-out: PI3Kb)?
Answer: > 10 µM

Question: What about the IC50 (PI3 Kgamma (PI3 Kg); Further Kinobeads Data, read-out: PI3Kg) of the same molecule?
Answer: > 10 µM
